Test results from patent US20230159532A1, “PARATHYROID HORMONE (PTH) RECEPTOR ANTAGONISTS AND USES THEREOF” (Crinetics Pharmaceuticals, Inc., priority 2021, published 2023).

Each compound was assayed against T1, human PTHR1 receptor (Homo sapiens, UniProt Q03431) (assay: Competitive antagonist binding assay for hPTH-R1 (radioactive competition binding, SPA beads)). Settings: human PTHR1 membranes, [125I]-[Nle8,18,Tyr34]-PTH(1-34) 0.2 nM, 90 minutes at room temperature; read-out: hPTHR1 Ki.
T1 construct: purchased Eurofins HTS030M
T1 sequence (Q03431 27-593): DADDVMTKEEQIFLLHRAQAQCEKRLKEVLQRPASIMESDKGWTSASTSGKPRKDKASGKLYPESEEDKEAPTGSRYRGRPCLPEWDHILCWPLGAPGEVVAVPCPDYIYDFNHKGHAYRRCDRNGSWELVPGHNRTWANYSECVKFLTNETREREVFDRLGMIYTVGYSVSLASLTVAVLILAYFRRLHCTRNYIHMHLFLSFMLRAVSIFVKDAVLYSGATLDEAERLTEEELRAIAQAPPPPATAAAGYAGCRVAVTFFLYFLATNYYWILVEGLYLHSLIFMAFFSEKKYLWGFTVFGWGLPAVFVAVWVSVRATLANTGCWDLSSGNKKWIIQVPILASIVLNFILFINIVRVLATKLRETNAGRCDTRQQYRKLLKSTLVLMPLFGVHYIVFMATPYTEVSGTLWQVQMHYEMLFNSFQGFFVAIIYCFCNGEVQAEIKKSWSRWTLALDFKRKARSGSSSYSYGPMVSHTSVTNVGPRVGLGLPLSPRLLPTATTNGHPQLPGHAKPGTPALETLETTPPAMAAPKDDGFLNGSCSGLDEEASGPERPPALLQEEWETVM
How it was run: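 Displacement of 0.2 nM radioiodinated [Nle8,18,Tyr34]-PTH(1-34) from membrane-bound human PTHR1 measured by scintillation proximity after 90 min at room temperature. Compounds typically 0-10,000 nM final, pH 7.4 HEPES/Mg/Ca buffer with BSA and detergent. Ki calculated from competition data.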

Ki [nM] | Structure (SMILES)
< 100 | CCN1C(=O)N(c2c(F)cc(NCCNC[C@@H](C)O)cc2F)c2cc(C#N)ccc2-c2cc(F)cnc21 [1-203, 10-{2,6-difluoro-4-[(2-{[(2R)-2-hydroxypropyl]amino}ethyl)amino]phenyl}-8-ethyl-4-fluoro-9-oxo-6,8,10-triazatricyclo[9.4.0.0^2,7]pentadeca-1(11),2(7),3,5,12,14-hexaene-13-carbonitrile]
< 100 | CCN1C(=O)N(c2c(F)cc(NCCN[C@@H]3CC[C@@H]3O)cc2F)c2cc(C#N)ccc2-c2cc(F)cnc21 [1-204, 10-{2,6-difluoro-4-[(2-{[(1R,2S)-2-hydroxycyclobutyl]amino}ethyl)amino]phenyl}-8-ethyl-4-fluoro-9-oxo-6,8,10-triazatricyclo[9.4.0.0^2,7]pentadeca-1(11),2(7),3,5,12,14-hexaene-13-carbonitrile]
< 100 | C[C@@H](CO)NCCNc1cc(F)c(N2C(=O)N(C)c3ncc(Cl)cc3-c3ccc(C#N)cc32)c(F)c1 [1-205, 4-chloro-10-{2,6-difluoro-4-[(2-{[(2S)-1-hydroxypropan-2-yl]amino}ethyl)amino]phenyl}-8-methyl-9-oxo-6,8,10-triazatricyclo[9.4.0.0^2,7]pentadeca-1(11),2(7),3,5,12,14-hexaene-13-carbonitrile]
< 100 | CCN1C(=O)N(c2c(F)cc(NCCN[C@@H](C)CO)cc2F)c2cc(C#N)ccc2-c2cc(F)cnc21 [1-213, 10-{2,6-difluoro-4-[(2-{[(2S)-1-hydroxypropan-2-yl]amino}ethyl)amino]phenyl}-8-ethyl-4-fluoro-9-oxo-6,8,10-triazatricyclo[9.4.0.0^2,7]pentadeca-1(11),2(7),3,5,12,14-hexaene-13-carbonitrile]
< 100 | CCN1C(=O)N(c2c(F)cc(NCCN[C@H](C)CO)cc2F)c2cc(C#N)ccc2-c2cc(F)cnc21 [1-214, 10-{2,6-difluoro-4-[(2-{[(2R)-1-hydroxypropan-2-yl]amino}ethyl)amino]phenyl}-8-ethyl-4-fluoro-9-oxo-6,8,10-triazatricyclo[9.4.0.0^2,7]pentadeca-1(11),2(7),3,5,12,14-hexaene-13-carbonitrile]
< 100 | CCN1C(=O)N(c2c(F)cc(NCCN[C@@H]3CC[C@H]3O)cc2F)c2cc(C#N)ccc2-c2cc(F)cnc21 [1-218, 10-{2,6-difluoro-4-[(2-{[(1R,2R)-2-hydroxycyclobutyl]amino}ethyl)amino]phenyl}-8-ethyl-4-fluoro-9-oxo-6,8,10-triazatricyclo[9.4.0.0^2,7]pentadeca-1(11),2(7),3,5,12,14-hexaene-13-carbonitrile]
< 100 | CCN1C(=O)N(c2c(F)cc(NCCN[C@@H](C)C(=O)O)cc2F)c2cc(C#N)ccc2-c2cc(Cl)cnc21 [1-219, (2S)-2-({2-[(4-{4-chloro-13-cyano-8-ethyl-9-oxo-6,8,10-triazatricyclo[9.4.0.0^2,7]pentadeca-1(11),2(7),3,5,12,14-hexaen-10-yl}-3,5-difluorophenyl)amino]ethyl}amino)propanoic acid]

The next lines start with the compound.

Structure (SMILES) | Ki [nM]
CCN1C(=O)N(c2c(F)cc(NCCN[C@H]3C[C@H](C(=O)O)C3)cc2F)c2cc(C#N)ccc2-c2cc(Cl)cnc21 [1-206, (1r,3r)-3-({2-[(4-{4-chloro-13-cyano-8-ethyl-9-oxo-6,8,10-triazatricyclo[9.4.0.0^2,7]pentadeca-1(11),2(7),3,5,12,14-hexaen-10-yl}-3,5-difluorophenyl)amino]ethyl}amino)cyclobutane-1-carboxylic acid] | < 100
CCN1C(=O)N(c2c(F)cc(NCCN[C@H]3C[C@@H](O)C3)cc2F)c2cc(C#N)ccc2-c2cc(C(F)(F)F)cnc21 [1-207, 10-{2,6-difluoro-4-[(2-{[(1s,3s)-3-hydroxycyclobutyl]amino}ethyl)amino]phenyl}-8-ethyl-9-oxo-4-(trifluoromethyl)-6,8,10-triazatricyclo[9.4.0.0^2,7]pentadeca-1(11),2(7),3,5,12,14-hexaene-13-carbonitrile] | < 100
CCN1C(=O)N(c2c(F)cc(NCCNCCO)cc2F)c2cc(C#N)ccc2-c2cc(C)cnc21 [1-208, 10-[2,6-difluoro-4-({2-[(2-hydroxyethyl)amino]ethyl}amino)phenyl]-8-ethyl-4-methyl-9-oxo-6,8,10-triazatricyclo[9.4.0.0^2,7]pentadeca-1(11),2(7),3,5,12,14-hexaene-13-carbonitrile] | < 100
CCN1C(=O)N(c2c(F)cc(NCCNCCC(C)(C)C(=O)O)cc2F)c2cc(C#N)ccc2-c2cc(Cl)cnc21 [1-209, 4-({2-[(4-{4-chloro-13-cyano-8-ethyl-9-oxo-6,8,10-triazatricyclo[9.4.0.0^2,7]pentadeca-1(11),2(7),3,5,12,14-hexaen-10-yl}-3,5-difluorophenyl)amino]ethyl}amino)-2,2-dimethylbutanoic acid] | < 100
CCN1C(=O)N(c2c(F)cc(NCCN[C@@H](CO)C(=O)O)cc2F)c2cc(C#N)ccc2-c2cc(Cl)cnc21 [1-210, (2S)-2-({2-[(4-{4-chloro-13-cyano-8-ethyl-9-oxo-6,8,10-triazatricyclo[9.4.0.0^2,7]pentadeca-1(11),2(7),3,5,12,14-hexaen-10-yl}-3,5-difluorophenyl)amino]ethyl}amino)-3-hydroxypropanoic acid] | < 100
CC(C)N1C(=O)N(c2c(F)cc(N3CC[C@@H](N)C3)cc2F)c2cc(C#N)cc(F)c2-c2cc(F)cnc21 [1-212, 10-{4-[(3R)-3-aminopyrrolidin-1-yl]-2,6-difluorophenyl}-4,15-difluoro-9-oxo-8-(propan-2-yl)-6,8,10-triazatricyclo[9.4.0.0^2,7]pentadeca-1(15),2(7),3,5,11,13-hexaene-13-carbonitrile] | < 100
CCN1C(=O)N(c2c(F)cc(NCCNCC(=O)O)cc2F)c2cc(C#N)ccc2-c2cc(Cl)cnc21 [1-215, 2-({2-[(4-{4-chloro-13-cyano-8-ethyl-9-oxo-6,8,10-triazatricyclo[9.4.0.0^2,7]pentadeca-1(11),2(7),3,5,12,14-hexaen-10-yl}-3,5-difluorophenyl)amino]ethyl}amino)acetic acid] | < 100
CCN1C(=O)N(c2c(F)cc(NCCNCCNC(=O)OC)cc2F)c2cc(C#N)ccc2-c2cc(F)cnc21 [1-216, methyl N-[2-({2-[(4-{13-cyano-8-ethyl-4-fluoro-9-oxo-6,8,10-triazatricyclo[9.4.0.0^2,7]pentadeca-1(11),2(7),3,5,12,14-hexaen-10-yl}-3,5-difluorophenyl)amino]ethyl}amino)ethyl]carbamate] | < 100
CCN1C(=O)N(c2c(F)cc(NCCN[C@H](CO)C(=O)O)cc2F)c2cc(C#N)ccc2-c2cc(Cl)cnc21 [1-220, (2R)-2-({2-[(4-{4-chloro-13-cyano-8-ethyl-9-oxo-6,8,10-triazatricyclo[9.4.0.0^2,7]pentadeca-1(11),2(7),3,5,12,14-hexaen-10-yl}-3,5-difluorophenyl)amino]ethyl}amino)-3-hydroxypropanoic acid] | < 100
CCN1C(=O)N(c2c(F)cc(NCCNCCCS(=O)(=O)O)cc2F)c2cc(C#N)ccc2-c2cc(F)cnc21 [1-221, 3-({2-[(4-{13-cyano-8-ethyl-4-fluoro-9-oxo-6,8,10-triazatricyclo[9.4.0.0^2,7]pentadeca-1(11),2(7),3,5,12,14-hexaen-10-yl}-3,5-difluorophenyl)amino]ethyl}amino)propane-1-sulfonic acid] | < 100
